Laboratory results: patent US7786141B2 (Vertex Pharmaceuticals Incorporated, priority 2004, dated 2010)

Columns and labels:
M1 muscarinic receptor = biological target: T1, M1 muscarinic receptor (Homo sapiens, UniProt P11229); test: Functional mobilization of intracellular calcium (FLIPR) in M1-CHO cells; format: cell-based; settings: Table 4; for Emax: 100% efficacy is the maximum response obtained with the Carbachol control
T1 construct: expressed in transfected cells; host or cells: CHO (M1-CHO)
T1 sequence (P11229 1-460): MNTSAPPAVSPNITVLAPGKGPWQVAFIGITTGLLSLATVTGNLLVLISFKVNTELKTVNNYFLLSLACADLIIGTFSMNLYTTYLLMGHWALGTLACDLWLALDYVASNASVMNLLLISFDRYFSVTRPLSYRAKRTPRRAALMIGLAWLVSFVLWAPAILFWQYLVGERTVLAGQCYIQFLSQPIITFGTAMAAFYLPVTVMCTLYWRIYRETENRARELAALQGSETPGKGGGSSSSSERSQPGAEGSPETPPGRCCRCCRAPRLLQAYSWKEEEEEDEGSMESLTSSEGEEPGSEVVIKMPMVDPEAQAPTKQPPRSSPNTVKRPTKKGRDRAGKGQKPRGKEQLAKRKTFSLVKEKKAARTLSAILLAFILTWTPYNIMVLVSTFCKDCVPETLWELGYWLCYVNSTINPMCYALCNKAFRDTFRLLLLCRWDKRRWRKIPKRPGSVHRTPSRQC
In short: (§1)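 Intracellular calcium rise is measured by FLIPR fluorescence over 60 sec in CHO cells carrying human M1 or M4 receptors. Compounds are tested alone as agonists, or pre-incubated 15 min (or co-applied) ahead of carbachol at its EC80 to detect inhibition.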

M4 muscarinic receptor = biological target: T2, M4 muscarinic receptor (Homo sapiens, UniProt P08173); test: Functional mobilization of intracellular calcium (FLIPR) in M4-CHO cells; format: cell-based; settings: Table 4; for Emax: 100% efficacy is the maximum response obtained with the Carbachol control
T2 construct: expressed in transfected cells; host or cells: CHO (M4-CHO)
T2 sequence (P08173 1-479): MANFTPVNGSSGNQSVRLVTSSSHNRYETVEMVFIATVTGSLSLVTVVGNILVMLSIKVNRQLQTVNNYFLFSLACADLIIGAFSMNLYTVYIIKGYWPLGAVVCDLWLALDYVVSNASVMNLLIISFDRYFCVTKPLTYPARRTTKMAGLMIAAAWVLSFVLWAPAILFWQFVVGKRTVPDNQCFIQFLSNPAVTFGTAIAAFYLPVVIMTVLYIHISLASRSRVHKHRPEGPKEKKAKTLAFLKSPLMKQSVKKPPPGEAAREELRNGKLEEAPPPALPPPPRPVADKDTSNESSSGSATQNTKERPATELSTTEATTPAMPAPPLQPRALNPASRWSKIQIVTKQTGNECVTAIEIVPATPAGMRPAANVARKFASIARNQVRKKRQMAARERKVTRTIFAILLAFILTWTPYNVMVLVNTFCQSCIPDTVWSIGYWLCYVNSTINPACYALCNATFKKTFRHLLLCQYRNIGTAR
In short: as §1

[1] = M1 receptor, calcium mobilization (FLIPR)
[2] = M4 receptor, calcium mobilization (FLIPR)

Row | Structure (SMILES) | Emax (M1 muscarinic receptor) | M1 Activity (M1 muscarinic receptor; modulating M1 receptor) | Emax (M4 muscarinic receptor) | M4 Activity (M4 muscarinic receptor; modulating M4 receptor) | M1 Activity (M1 muscarinic receptor; [1]) | M4 Activity (M4 muscarinic receptor; [2])
1 | CC(=O)CN1CC2(CCN(C3CCCCC3)CC2)c2cc(F)ccc21 [compound 796] | 25 to 100% | xxx (activity was measured to be less than 2.0 μM) | 25 to 100% | xxx (activity was measured to be less than 2.0 μM) | – | –
2 | CCCC(=O)N[C@H]1CC2(CCN(CC3CCCCC3)CC2)c2ccccc21 [compound 797] | 25 to 100% | x (activity was measured to be greater than 5.0 μM) | 25 to 100% | xxx (activity was measured to be less than 2.0 μM) | – | –
3 | O=C(N[C@H]1CC2(CCN(CCC3CC4CC[C@@H]3C4)CC2)c2ccccc21)c1ccoc1 (some centres unmarked) [compound 798] | < 25% | x (activity was measured to be greater than 5.0 μM) | < 25% | x (activity was measured to be greater than 5.0 μM) | – | –
4 | CCOC(=O)N1CCC(N2CCC3(CC2)CN(C(C)=O)c2c(-c4ccccc4OC)cccc23)CC1 [compound 799] | < 25% | x (activity was measured to be greater than 5.0 μM) | < 25% | x (activity was measured to be greater than 5.0 μM) | – | –
5 | CCOC(=O)N1CCC(N2CCC3(CC2)CN(CC(=O)N(C)C)c2ccc(F)cc23)CC1 [compound 800] | 25 to 100% | xxx (activity was measured to be less than 2.0 μM) | 25 to 100% | xxx (activity was measured to be less than 2.0 μM) | – | –
6 | O=C(N[C@H]1CC2(CCN(C3CCCCC3)CC2)c2ccccc21)c1ccoc1 [compound 801] | < 25% | x (activity was measured to be greater than 5.0 μM) | < 25% | x (activity was measured to be greater than 5.0 μM) | – | –
7 | c1ccc2c(c1)CCCC21CCN(CC2CCCCC2)CC1 [compound 802] | 25 to 100% | – | 25 to 100% | – | – | –
8 | O=C(O)C1CC2(CCN(CC3CCCCC3)CC2)c2ccccc21 (centres unmarked) [compound 803] | < 25% | – | < 25% | – | x (activity was measured to be greater than 5.0 μM) | x (activity was measured to be greater than 5.0 μM)
9 | Cc1cc(C(=O)N2CCC(N3CCC4(CC3)CN(C(=O)N(C)C)c3ccc(F)cc34)CC2)no1 [compound 804] | < 25% | – | < 25% | – | x (activity was measured to be greater than 5.0 μM) | x (activity was measured to be greater than 5.0 μM)
10 | CC(CF)OC(=O)N1CC[C@@H](CN2CCC3(CC2)CN(C(=O)N(C)C)c2ccc(F)cc23)C1 (some centres unmarked) [compound 805] | 25 to 100% | – | 25 to 100% | – | xxx (activity was measured to be less than 2.0 μM) | xxx (activity was measured to be less than 2.0 μM)
11 | CC(=O)N[C@H]1CC2(CCN(CC(=O)N(C)C3CCN(C)CC3)CC2)c2ccccc21 [compound 806] | < 25% | – | < 25% | – | x (activity was measured to be greater than 5.0 μM) | x (activity was measured to be greater than 5.0 μM)
12 | COC(=O)N1CC[C@H](CN2CCC3(CC2)CN(C(=O)N(C)C)c2ccc(F)cc23)C1 [compound 807] | 25 to 100% | – | 25 to 100% | – | xxx (activity was measured to be less than 2.0 μM) | xxx (activity was measured to be less than 2.0 μM)
13 | CCOC(=O)N1CCC(N2CCC3(CC2)CN(c2ccc(F)cc2)c2ccc(F)cc23)CC1 [compound 808] | 25 to 100% | – | 25 to 100% | – | xxx (activity was measured to be less than 2.0 μM) | xxx (activity was measured to be less than 2.0 μM)
14 | CCOC(=O)N1C2CCC1CC(N1CCC3(CC[C@H](NS(C)(=O)=O)c4ccccc43)CC1)C2 (some centres unmarked) [compound 809] | 25 to 100% | – | 25 to 100% | – | xxx (activity was measured to be less than 2.0 μM) | xxx (activity was measured to be less than 2.0 μM)
15 | CCOC(=O)N1C2CCC1CC(N1CCC3(CC[C@H](NC(C)=O)c4ccccc43)CC1)C2 (some centres unmarked) [compound 810] | 25 to 100% | – | 25 to 100% | – | xxx (activity was measured to be less than 2.0 μM) | xxx (activity was measured to be less than 2.0 μM)
16 | CN(C)C(=O)N1CC2(CCN(C3CCN(C(=O)c4ccsc4)CC3)CC2)c2cc(F)ccc21 [compound 812] | 25 to 100% | – | < 25% | – | xx (activity was measured to be between 2.0 μM and 5.0 μM) | x (activity was measured to be greater than 5.0 μM)
17 | Cc1ccc2c(c1)C1(CCN(C3CC4CCC3C4)CC1)CN2C(=O)c1ccccn1 (centres unmarked) [compound 813] | 25 to 100% | – | < 25% | – | x (activity was measured to be greater than 5.0 μM) | x (activity was measured to be greater than 5.0 μM)
18 | COc1ccc(F)cc1N1CCC(N2CCC3(CC2)CN(C(=O)N(C)C)c2ccc(F)cc23)CC1 [compound 814] | 25 to 100% | – | 25 to 100% | – | x (activity was measured to be greater than 5.0 μM) | xx (activity was measured to be between 2.0 μM and 5.0 μM)
19 | CN(C)C(=O)CN1CC2(CCN(C[C@@H]3C[C@H]4C=CC3C4)CC2)c2cc(F)ccc21 [compound 815] | 25 to 100% | – | 25 to 100% | – | xx (activity was measured to be between 2.0 μM and 5.0 μM) | xxx (activity was measured to be less than 2.0 μM)
20 | C#CCOC(=O)N1CC[C@@H](CN2CCC3(CC2)CN(C(C)=O)c2ccccc23)C1 [compound 816] | > 100% | – | > 100% | – | xxx (activity was measured to be less than 2.0 μM) | xxx (activity was measured to be less than 2.0 μM)
21 | CC1=C(CCN2CCC3(CC2)C[C@H](NC(=O)c2ccoc2)c2ccccc23)C(C)(C)CCC1 [compound 817] | < 25% | – | < 25% | – | x (activity was measured to be greater than 5.0 μM) | x (activity was measured to be greater than 5.0 μM)
22 | CC(=O)N[C@H]1CC2(CCN(CC3CCN(C(=O)OC4CCC4)CC3)CC2)c2ccccc21 [compound 818] | < 25% | – | < 25% | – | x (activity was measured to be greater than 5.0 μM) | x (activity was measured to be greater than 5.0 μM)
23 | CC(=O)N[C@H]1CCC2(CCN(CCC3CCCN(C(=O)OC(C)(C)C)C3)CC2)c2ccccc21 (some centres unmarked) [compound 819] | 25 to 100% | – | < 25% | – | xxx (activity was measured to be less than 2.0 μM) | x (activity was measured to be greater than 5.0 μM)
24 | CCCC#CCOC(=O)N1C2CCC1CC(N1CCC3(CC1)CN(C(C)=O)c1ccccc13)C2 (centres unmarked) [compound 820] | 25 to 100% | – | 25 to 100% | – | xxx (activity was measured to be less than 2.0 μM) | xxx (activity was measured to be less than 2.0 μM)
25 | CC(=O)N[C@H]1CC2(CCN([C@@H]3CC4CCC3C4)C2)c2ccc(F)cc21 (some centres unmarked) [compound 821] | 25 to 100% | – | < 25% | – | x (activity was measured to be greater than 5.0 μM) | x (activity was measured to be greater than 5.0 μM)
26 | CCc1cncc(N2CCC(N3CCC4(CC3)CN(C(C)=O)c3ccccc34)CC2)n1 [compound 822] | 25 to 100% | – | 25 to 100% | – | xxx (activity was measured to be less than 2.0 μM) | xxx (activity was measured to be less than 2.0 μM)
27 | CC(=O)N[C@H]1CC2(CCN(C3CCCCCC3)C2)c2ccc(F)cc21 (some centres unmarked) [compound 823] | 25 to 100% | – | 25 to 100% | – | xx (activity was measured to be between 2.0 μM and 5.0 μM) | xx (activity was measured to be between 2.0 μM and 5.0 μM)
28 | CC(=O)N1CC2(CCN(C3CCN(C(=O)O[C@H]4CCOC4)CC3)CC2)c2ccccc21 [compound 824] | 25 to 100% | – | < 25% | – | x (activity was measured to be greater than 5.0 μM) | x (activity was measured to be greater than 5.0 μM)
